One molecule from PMC10439028, “SGLT5 is the renal transporter for 1,5-anhydroglucitol, a major player in two rare forms of neutropenia” (Cellular and Molecular Life Sciences: CMLS, 2023) can be followed below.

This assay concerns the target T1, hSGLT5 Asn96Ile (Homo sapiens, UniProt A0PJK1, N96I).
T1 construct: pUB83-hSGLT5-iso2 as well as the various SGLT5 mutants obtained were used to transduce HEK293T cells; expressed in transfected cells; host or cells: HEK293T, lentiviral transduction (pUB83)
T1 sequence (A0PJK1 1-596 N96I): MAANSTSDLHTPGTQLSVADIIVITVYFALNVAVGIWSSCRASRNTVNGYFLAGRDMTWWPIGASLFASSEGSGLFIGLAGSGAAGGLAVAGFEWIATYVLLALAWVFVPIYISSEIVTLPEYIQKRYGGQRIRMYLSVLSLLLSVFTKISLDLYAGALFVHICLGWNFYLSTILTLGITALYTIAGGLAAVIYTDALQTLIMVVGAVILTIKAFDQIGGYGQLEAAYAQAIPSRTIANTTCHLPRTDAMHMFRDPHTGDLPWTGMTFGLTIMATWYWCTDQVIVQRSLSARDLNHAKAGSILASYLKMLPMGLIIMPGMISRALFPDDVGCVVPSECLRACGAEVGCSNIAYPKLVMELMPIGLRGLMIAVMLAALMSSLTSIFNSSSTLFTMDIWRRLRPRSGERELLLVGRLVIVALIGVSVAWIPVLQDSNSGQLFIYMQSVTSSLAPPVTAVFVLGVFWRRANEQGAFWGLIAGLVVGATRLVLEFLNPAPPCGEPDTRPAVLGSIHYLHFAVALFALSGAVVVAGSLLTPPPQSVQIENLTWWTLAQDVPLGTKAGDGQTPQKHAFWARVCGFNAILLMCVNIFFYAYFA
The assay can be described thus: 1,5-AG uptake in HEK293T cells overexpressing SGLT5 variant Asn96Ile. It is filed as cell-based. How it is done: For a typical transporter experiment we proceeded as follows. […] To minimize cell loss during the various washing steps in the radioactive uptake experiments, the wells where the cells were seeded were previously coated with poly- D-lysine, which improved their adhesion to the plastic surface of the wells. For this, each well of the 24-well plates was treated with 200 µl of a 0.01% poly-L-lysine solution for 10 min, washed 3 times with 1 ml of sterilized water and left to dry for 2 h. Only then could the 24-well plates be seeded with the appropriate cell lines and cultured overnight at 37 °C in 5% CO2.
On day two, the radioactive uptake assay could be performed. The cell culture media was removed by aspiration and cells were incubated for 20 min at 37 °C and 5% CO2 with a basal medium (10 mM HEPES, pH 7.4, 1 mM CaCl2, 1 mM MgCl2, 2 mM KCl) containing 140 mM choline chloride to deplete intracellular Na^2+ ions. […]
Once the uptake medium was added to the cells, the plates were incubated at 37 °C in 5% CO2 during the required time. […] In each experiment, the transport activities were calculated after subtracting a “blank” value, corresponding to the radioactivity in the appropriate control cells (HEK293T cells that were stably or transiently transfected with one of the parent plasmids pEF6/MycHisA, pEF6HisB, pUB82 or pUB83 with no inserted cDNA) that were analyzed in parallel. […]

With `OC[C@H]1OC[C@H](O)[C@@H](O)[C@@H]1O` [1,5-AG, 1,5-anhydroglucitol], the Vmax amounted to 19.5 ± 3 pmol/min/10^5cells and the “reduction of transport efficiency compared to SGLT5” value is listed as “sixfold”.
